{"source": "patent US4309559A", "about": "“Sulphonamides useful as pesticides” (FBC Limited, priority 1977, dated 1982)", "key": {"Peas (Pisum sativum)": {"test_system": "Peas (Pisum sativum)", "assay": "Post-emergence foliar spray, herbicidal/growth regulant response, peas", "format": "in vivo", "settings": "Lathyrus oleraceus, 168 h, foliar spray 11.2 kg/ha, 7 days, 0=no effect, 100=complete kill, read-out: herbicidal or growth regulant response index", "outline": "(§1)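 Score is a visual index from 0 (no effect) to 100 (complete kill) versus untreated control, assessed seven days after spraying. Plants were treated 14 days post-sowing at a rate equivalent to 11.2 kg/ha in 450 liters per hectare, compound dissolved in 1:1 aqueous acetone.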"}, "[1]": {"test_system": "Sugarbeet (Beta vulgaris)", "assay": "Post-emergence foliar spray, herbicidal/growth regulant response, sugarbeet", "format": "in vivo", "settings": "168 h, foliar spray 11.2 kg/ha, 7 days, 0=no effect, 100=complete kill, read-out: herbicidal or growth regulant response index", "outline": "as §1"}, "[2]": {"test_system": "Blackgrass (Alopecurus myosuroides)", "assay": "Pre-emergence soil surface spray, blackgrass", "format": "in vivo", "settings": "soil surface spray 2.8 kg/ha, 21 days, 0=no effect, 100=complete kill", "outline": "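Visual score 0-100 (0 = no effect, 100 = complete kill) relative to untreated control, taken 21 days after a pre-emergence soil-surface spray at 2.8 kg a.i./ha in 450 l/ha. Compound formulated in 1:1 aqueous acetone; growth at 22° C., RH 65-85%, 14 h/day light at 17,000 lux.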"}, "Pythium ultimum [3]": {"test_system": "Pythium ultimum", "assay": "Fungal growth on the surface of soil infected with damping-off disease organism", "format": "in vivo", "settings": "6 days, 25° C., 0-8 scale"}, "Pythium ultimum [4]": {"test_system": "Pythium ultimum", "assay": "Cabbage seedling emergence in soil infected with Pythium ultimum", "format": "in vivo, Pythium ultimum (on cabbage, variety Flower of Spring)", "settings": "6 days, 25° C., 0-8 scale", "outline": "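Potting compost infested with one-week maize meal/sand Pythium ultimum culture (3 kg per 12 l soil), drenched with compound in Tween 20/water at 1500, 500, 150 or 50 ppm; 15 cabbage seeds sown per carton, 25° C, four replicates. After six days, soil-surface fungal growth and seedling emergence scored 0-8.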"}}}
{"compound": "CCCS(=O)(=O)N(c1c(C)cccc1C)C(C)C(=O)OCC", "note": "(stereo not shown) [Example 24, N-(1-[ethoxycarbonyl]ethyl)-2',6'-dimethyl-1-propanesulphonanilide]", "values": [{"measurement": "pest or weed control at 11200 g/ha", "setting": "Peas (Pisum sativum)", "value": 20, "unit": "%"}, {"measurement": "plant injury at 11200 g/ha", "setting": "[1]", "value": 90, "unit": "%"}, {"measurement": "growth regulatory or herbicidal effect score", "setting": "[2]", "value": 100}, {"measurement": "Mycelial Control Score", "setting": "Pythium ultimum [3]; 30 ppm", "value": "0 (<20% inhibition)"}, {"measurement": "Mycelial Control Score", "setting": "Pythium ultimum [3]; 100 ppm", "value": "0 (<20% inhibition)"}, {"measurement": "Germination Score", "setting": "Pythium ultimum [4]; 30 ppm", "value": "1 (20-34% inhibition)"}, {"measurement": "Germination Score", "setting": "Pythium ultimum [4]; 100 ppm", "value": "5 (65-74% inhibition)"}]}
